Data: ChEMBL document CHEMBL1201862, “PubChem BioAssay data set” (2004)
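Assay format: 96-well plates, 48-hour exposure. Abbreviation: GI50, concentration required for 50% inhibition of growth.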 Active and inactive are the calls of the source. Cut-off read from the data, not from the text of the source: active = GI50 up to about 1.1 µM and inactive = higher.

Columns and labels:
Assay in all cases: DTP human tumour cell line panel, 48 h
M14 = tested on: M14
HOP-62 = tested on: HOP-62
OVCAR-3 = tested on: OVCAR-3
OVCAR-8 = tested on: OVCAR-8
SF-268 = tested on: SF-268
786-0 = tested on: 786-0
OVCAR-5 = tested on: OVCAR-5
SF-539 = tested on: SF-539
SNB-75 = tested on: SNB-75
SK-MEL-28 = tested on: SK-MEL-28
TK-10 = tested on: TK-10
SR = tested on: SR
HCC 2998 = tested on: HCC 2998
CCRF-CEM = tested on: CCRF-CEM
UACC-62 = tested on: UACC-62
SNB-19 = tested on: SNB-19
SK-OV-3 = tested on: SK-OV-3
HOP-92 = tested on: HOP-92
K562 = tested on: K562
RXF 393 = tested on: RXF 393

Measured: GI50

COc1cc2c(c(O)c1OC)C(=O)[C@@H]1CCC(=O)N1C2
inactive: M14 > 100 µM | HOP-62 > 100 µM | OVCAR-3 > 100 µM | OVCAR-8 > 100 µM | SF-268 > 100 µM | 786-0 > 100 µM | OVCAR-5 > 100 µM | SF-539 > 100 µM | SNB-75 > 100 µM | SK-MEL-28 > 100 µM | TK-10 > 100 µM | SR > 100 µM | HCC 2998 > 100 µM | CCRF-CEM > 100 µM | UACC-62 > 100 µM | SNB-19 > 100 µM | SK-OV-3 > 100 µM | HOP-92 71 µM | K562 > 100 µM

COc1ccc(NC(=O)CC/C(CC(=O)C(C)(C)C)=N\NC(=O)C(N)=O)cc1
inactive: M14 > 100 µM | RXF 393 > 100 µM | HOP-62 > 100 µM | OVCAR-3 > 100 µM | OVCAR-8 > 100 µM | SF-268 > 100 µM | 786-0 > 100 µM | OVCAR-5 > 100 µM | SF-539 > 100 µM | SK-MEL-28 > 100 µM | SR > 100 µM | HCC 2998 > 100 µM | CCRF-CEM > 100 µM | UACC-62 > 100 µM | SNB-19 > 100 µM | SK-OV-3 > 100 µM | HOP-92 > 100 µM | K562 84.9 µM

CC1(C)CO[P@@](=S)(c2ccccn2)O[C@@H]1c1ccccc1
inactive: M14 > 100 µM | RXF 393 > 100 µM | HOP-62 > 100 µM | OVCAR-3 18.7 µM | OVCAR-8 > 100 µM | SF-268 > 100 µM | 786-0 > 100 µM | OVCAR-5 > 100 µM | SNB-75 > 100 µM | SK-MEL-28 > 100 µM | TK-10 > 100 µM | SR 39.4 µM | HCC 2998 > 100 µM | CCRF-CEM 64.4 µM | UACC-62 > 100 µM | SNB-19 > 100 µM | SK-OV-3 > 100 µM | HOP-92 > 100 µM | K562 57 µM

CCOC(=O)Nc1sc2c(c1C#N)CCCC2
inactive: RXF 393 > 100 µM | HOP-62 > 100 µM | OVCAR-3 > 100 µM | SF-268 > 100 µM | 786-0 > 100 µM | OVCAR-5 > 100 µM | SK-MEL-28 > 100 µM | TK-10 > 100 µM | SR 75 µM | HCC 2998 > 100 µM | CCRF-CEM 64.9 µM | UACC-62 67.1 µM | SNB-19 89.5 µM | SK-OV-3 > 100 µM | HOP-92 47.3 µM | K562 33.1 µM

O=C(Nc1cc(Cl)c(Cl)cc1Cl)C(=O)C(C(=O)c1ccc(Cl)c(Cl)c1)C1OC(=O)c2ccccc21 (configuration not stated)
inactive: M14 13.5 µM | RXF 393 8.3 µM | HOP-62 12.6 µM | OVCAR-3 13.7 µM | OVCAR-8 10.7 µM | SF-268 15.7 µM | 786-0 13.4 µM | OVCAR-5 11.1 µM | SF-539 2.67 µM | TK-10 26.1 µM | SR 4.39 µM | HCC 2998 18.8 µM | CCRF-CEM 5.35 µM | UACC-62 16.1 µM | SNB-19 15.5 µM | SK-OV-3 26.1 µM | HOP-92 11 µM | K562 4.2 µM

O=C(N/N=C/c1cccc(F)c1)c1ccncc1
inactive: M14 > 100 µM | RXF 393 > 100 µM | HOP-62 > 100 µM | SF-268 > 100 µM | 786-0 > 100 µM | SNB-75 > 100 µM | SK-MEL-28 > 100 µM | TK-10 > 100 µM | SR > 100 µM | HCC 2998 > 100 µM | CCRF-CEM > 100 µM | SNB-19 > 100 µM | SK-OV-3 > 100 µM | HOP-92 > 100 µM

O=c1oc2c3ccc4ccccc4c3n(CCCN3CCCCC3)c2c2ccccc12
inactive: M14 11.5 µM | HOP-62 > 100 µM | OVCAR-3 > 100 µM | OVCAR-8 32.7 µM | SF-268 59.2 µM | 786-0 18.7 µM | OVCAR-5 > 100 µM | SF-539 19.4 µM | SNB-75 52.2 µM | SK-MEL-28 19.1 µM | TK-10 42.1 µM | SR 3.59 µM | HCC 2998 > 100 µM | CCRF-CEM 17.3 µM | UACC-62 > 100 µM | SNB-19 > 100 µM | SK-OV-3 > 100 µM | HOP-92 > 100 µM | K562 10.2 µM

[O-][S+]1CC[S+]([O-])CC[S+]([O-])CC1 (configuration not stated)
inactive: M14 > 100 µM | HOP-62 > 100 µM | OVCAR-3 > 100 µM | OVCAR-8 > 100 µM | SF-268 > 100 µM | 786-0 > 100 µM | OVCAR-5 > 100 µM | SF-539 > 100 µM | SNB-75 > 100 µM | SK-MEL-28 > 100 µM | TK-10 > 100 µM | SR > 100 µM | HCC 2998 > 100 µM | CCRF-CEM > 100 µM | UACC-62 > 100 µM | SNB-19 > 100 µM | SK-OV-3 > 100 µM | HOP-92 > 100 µM | K562 > 100 µM
